Test results published in patent US20230218666A1, “ANTIMICROBIAL COMBINATIONS” (MARVELBIOTICS LIMITED, priority 2020, published 2023).
“And” between values parts separate entries of the source, which are not always exact repeats. Equal values may be shown once.

Experiments:
Lactobacillus plantarum [1] = assay: Phase 2a: survival of Lactobacillus plantarum after 24 hours contact at stock concentrations
Method: Twenty-four-hour cultures of L. plantarum were harvested from MRSA and used to prepare a 1×10^8±5×10^7 CFUmL^−1 suspension in MRSB. The starting inoculum was confirmed by serial dilution and plating out the resultant suspensions. […] A 50 μL aliquot of each test agent was added to the wells of a 96-well plate. A 50 μL aliquot of L. plantarum inoculum was then added to the test agent and pipette mixed. The 96-well plates were incubated for 24 hours at 37° C.±2° C. and 5% CO2. Following incubation, 100 μL of DE-N was added to each well and pipette mixed. A 10 μL aliquot of each neutralised suspension was taken from each well and spot-plated onto MRSA. The plates were incubated for 24 hours at 37° C.±2° C. and 5% CO2. Following incubation, the presence or absence of growth on the plates was recorded. Testing was performed in triplicate.

Lactobacillus plantarum [2] = assay: Phase 2c: survival of Lactobacillus plantarum after 30 minutes, 4 hours and 24 hours contact; assay type: cell-based; details: for Minimum concentration at which growth was observed (%): single agent, n = 3; for Growth observed after recovering viable Lactobacillus plantarum: replicates 1.1-3.2
Method: Three concentrations of each test agent were prepared following the results of Phase 2b. […] Testing was performed in triplicate.

Lactobacillus plantarum [3] = assay: Phase 2b: survival of Lactobacillus plantarum after 24 hours contact at a range of concentrations; details: for Minimum concentration at which growth was observed (%): single agent, n = 3; for Growth observed after recovering viable Lactobacillus plantarum: 24 hours, replicates 1.1-3.2
Method: Twenty-four-hour cultures of L. plantarum were harvested from MRSA and used to prepare a 1×10^8±5×10^7 CFUmL^−1 suspension in MRSB. The starting inoculum was confirmed by serial dilution and plating out the resultant suspensions. […] Each test agent was diluted 1:2 a total of eight times. A 50 μL aliquot of each test agent dilution was added to the wells of a 96-well plate. A 50 μL aliquot of L. plantarum inoculum was added to the test agent and pipette mixed. The 96-well plates were incubated for 24 hours at 37° C.±2° C. and 5% CO2. Following incubation, 100 μL of DE-N was added to each well and pipette mixed. A 10 μL aliquot of each neutralised suspension was taken from each well and spot-plated onto MRSA. The plates were incubated for 24 hours at 37° C.±2° C. and 5% CO2. Following incubation, the presence or absence of growth on the plates was recorded. Testing was performed in triplicate.

Question: With Copper gluconate as the substance, how does the Growth (Lactobacillus plantarum [1]; stock concentration 8.167 %, n = 3) read?
Answer: No

Question: What about the Growth (Lactobacillus plantarum [1]; stock concentration 8.167 %, n = 3, listed as copper gluconate) of the same substance?
Answer: No growth of L. plantarum was observed

Question: What about the “concentration at which consistent growth was observed across all replicates” value (Lactobacillus plantarum [2]; 30 minutes contact time) of the same substance?
Answer: ≤ 4.083%

Question: What about the “Minimum concentration at which growth was observed (%)” value (“Minimum concentration … (%)” below) (Lactobacillus plantarum [2]; 30 minutes contact time) of the same substance?
Answer: 8.167%

Question: And the “Minimum concentration … (%)” value (Lactobacillus plantarum [2]; 4 hours contact time)?
Answer: 0.510%

Question: What about the “Minimum concentration … (%)” value (Lactobacillus plantarum [2]; 24 hours contact time) of the same substance?
Answer: 0.255%

Question: And the “Growth observed after recovering viable Lactobacillus plantarum” value (“Growth observed” for short) (Lactobacillus plantarum [2]; concentration 0.128 %, 24 hours)?
Answer: +

Question: What about the “Growth observed” value (Lactobacillus plantarum [2]; concentration 0.255 %, 4 hours) of the same substance?
Answer: +

Question: What about the “Growth observed” value (Lactobacillus plantarum [2]; concentration 0.255 %, 24 hours) of the same substance?
Answer: +

Question: What about the “Growth observed” value (Lactobacillus plantarum [2]; concentration 0.510 %, 4 hours) of the same substance?
Answer: +

Question: What about the “Growth observed” value (Lactobacillus plantarum [2]; concentration 0.510 %, 24 hours) of the same substance?
Answer: −

Question: And the “Growth observed” value (Lactobacillus plantarum [2]; concentration 0.510 %, 24 hours, listed as copper gluconate)?
Answer: unable to survive

Question: And the “Growth observed” value (Lactobacillus plantarum [2]; concentration 1.021 %, 4 hours)?
Answer: −

Question: And the “Growth observed” value (Lactobacillus plantarum [2]; concentration 1.021 %, 4 hours, listed as copper gluconate)?
Answer: unable to survive

Question: What about the “Growth observed” value (Lactobacillus plantarum [2]; concentration 2.042 %, 30 minutes) of the same substance?
Answer: +

Question: What about the “Growth observed” value (Lactobacillus plantarum [2]; concentration 4.084 %, 30 minutes) of the same substance?
Answer: +

Question: And the “Growth observed” value (Lactobacillus plantarum [2]; concentration 8.167 %, 30 minutes)?
Answer: − (4×) and + (2×)

Question: What about the “Growth observed” value (Lactobacillus plantarum [2]; concentration 8.167 %, 30 minutes, listed as copper gluconate) of the same substance?
Answer: Growth was observed in two of three replicates

Question: And the “Minimum concentration … (%)” value (Lactobacillus plantarum [3]; 24 hours contact time)?
Answer: 0.255%

Question: What about the “Growth observed” value (Lactobacillus plantarum [3]; concentration 0.064 %) of the same substance?
Answer: +

Question: And the “Growth observed” value (Lactobacillus plantarum [3]; concentration 0.128 %)?
Answer: +

Question: What about the “Growth observed” value (Lactobacillus plantarum [3]; concentration 0.255 %) of the same substance?
Answer: +

Question: What about the “Growth observed” value (Lactobacillus plantarum [3]; concentration 0.510 %) of the same substance?
Answer: −

Question: And the “Growth observed” value (Lactobacillus plantarum [3]; concentration 1.021 %)?
Answer: −

Question: And the “Growth observed” value (Lactobacillus plantarum [3]; concentration 2.042 %)?
Answer: −

Question: And the “Growth observed” value (Lactobacillus plantarum [3]; concentration 4.084 %)?
Answer: −

Question: And the “Growth observed” value (Lactobacillus plantarum [3]; concentration 8.167 %)?
Answer: −

Question: Which results are given for Zinc gluconate?
Answer: Growth (Lactobacillus plantarum [1]; stock concentration 6.326 %, n = 3): Yes; Growth (Lactobacillus plantarum [1]; stock concentration 6.326 %, n = 3, listed as zinc gluconate): Growth of L. plantarum was observed; Minimum concentration at which growth was observed (%) (Lactobacillus plantarum [2]; 30 minutes contact time): 6.326%; Minimum concentration at which growth was observed (%) (Lactobacillus plantarum [2]; 30 minutes contact time, listed as zinc gluconate): ≤ 6.326%; Minimum concentration at which growth was observed (%) (Lactobacillus plantarum [2]; 4 hours contact time): 6.326%; Minimum concentration at which growth was observed (%) (Lactobacillus plantarum [2]; 4 hours contact time, listed as zinc gluconate): ≤ 6.326%; Minimum concentration at which growth was observed (%) (Lactobacillus plantarum [2]; 24 hours contact time): 6.326%; Minimum concentration at which growth was observed (%) (Lactobacillus plantarum [2]; 24 hours contact time, listed as zinc gluconate): ≤ 6.326%; Growth observed after recovering viable Lactobacillus plantarum (Lactobacillus plantarum [2]; concentration 1.5815 %, 30 minutes): +; Growth observed after recovering viable Lactobacillus plantarum (Lactobacillus plantarum [2]; concentration 1.5815 %, 4 hours): +; Growth observed after recovering viable Lactobacillus plantarum (Lactobacillus plantarum [2]; concentration 1.5815 %, 24 hours): +; Growth observed after recovering viable Lactobacillus plantarum (Lactobacillus plantarum [2]; concentration 3.163 %, 30 minutes): +; Growth observed after recovering viable Lactobacillus plantarum (Lactobacillus plantarum [2]; concentration 3.163 %, 4 hours): +; Growth observed after recovering viable Lactobacillus plantarum (Lactobacillus plantarum [2]; concentration 3.163 %, 24 hours): +; Growth observed after recovering viable Lactobacillus plantarum (Lactobacillus plantarum [2]; concentration 6.326 %, 30 minutes): +; Growth observed after recovering viable Lactobacillus plantarum (Lactobacillus plantarum [2]; concentration 6.326 %, 4 hours): +; Growth observed after recovering viable Lactobacillus plantarum (Lactobacillus plantarum [2]; concentration 6.326 %, 24 hours): +; Growth of L. plantarum (Lactobacillus plantarum [3]; 24 hours contact time, at all concentrations tested (Table 6)): Growth was observed; Minimum concentration at which growth was observed (%) (Lactobacillus plantarum [3]; 24 hours contact time): 6.326%; Growth observed after recovering viable Lactobacillus plantarum (Lactobacillus plantarum [3]; concentration 0.049 %): +; Growth observed after recovering viable Lactobacillus plantarum (Lactobacillus plantarum [3]; concentration 0.099 %): +; Growth observed after recovering viable Lactobacillus plantarum (Lactobacillus plantarum [3]; concentration 0.198 %): +; Growth observed after recovering viable Lactobacillus plantarum (Lactobacillus plantarum [3]; concentration 0.395 %): +; Growth observed after recovering viable Lactobacillus plantarum (Lactobacillus plantarum [3]; concentration 0.791 %): +; Growth observed after recovering viable Lactobacillus plantarum (Lactobacillus plantarum [3]; concentration 1.582 %): +; Growth observed after recovering viable Lactobacillus plantarum (Lactobacillus plantarum [3]; concentration 3.163 %): +; Growth observed after recovering viable Lactobacillus plantarum (Lactobacillus plantarum [3]; concentration 6.326 %): +
